Data on 1 molecule can be found in US10774122B2, “ERG targeted therapy” (The Regents of the University of Michigan, priority 2017, dated 2020).

SMILES strings stand for the structures. Where a SMILES comes first, the peptide text is derived from it. [ ]: non-standard residue; d: D form.

One data set has as its target T1, ERG:DNA-PKcs interaction (Homo sapiens, UniProt P11308).
T1 sequence (P11308 33-479 limits assumed): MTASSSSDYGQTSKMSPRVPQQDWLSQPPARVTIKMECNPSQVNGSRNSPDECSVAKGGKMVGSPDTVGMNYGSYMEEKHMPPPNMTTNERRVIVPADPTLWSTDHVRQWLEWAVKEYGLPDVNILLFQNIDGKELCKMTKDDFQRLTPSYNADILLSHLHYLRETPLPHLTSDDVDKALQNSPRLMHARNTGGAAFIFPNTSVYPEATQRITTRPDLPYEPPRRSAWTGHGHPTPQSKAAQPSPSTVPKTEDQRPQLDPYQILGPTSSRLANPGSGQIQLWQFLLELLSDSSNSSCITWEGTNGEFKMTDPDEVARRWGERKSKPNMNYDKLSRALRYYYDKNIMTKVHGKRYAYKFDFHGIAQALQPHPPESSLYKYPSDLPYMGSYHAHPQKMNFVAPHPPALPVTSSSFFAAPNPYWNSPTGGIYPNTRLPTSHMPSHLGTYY
Conditions: mouse, in vivo, 25 mg/kg.

Data set [1] deals with T2, ERG (Homo sapiens, UniProt P11308).
T2 sequence (P11308 1-479): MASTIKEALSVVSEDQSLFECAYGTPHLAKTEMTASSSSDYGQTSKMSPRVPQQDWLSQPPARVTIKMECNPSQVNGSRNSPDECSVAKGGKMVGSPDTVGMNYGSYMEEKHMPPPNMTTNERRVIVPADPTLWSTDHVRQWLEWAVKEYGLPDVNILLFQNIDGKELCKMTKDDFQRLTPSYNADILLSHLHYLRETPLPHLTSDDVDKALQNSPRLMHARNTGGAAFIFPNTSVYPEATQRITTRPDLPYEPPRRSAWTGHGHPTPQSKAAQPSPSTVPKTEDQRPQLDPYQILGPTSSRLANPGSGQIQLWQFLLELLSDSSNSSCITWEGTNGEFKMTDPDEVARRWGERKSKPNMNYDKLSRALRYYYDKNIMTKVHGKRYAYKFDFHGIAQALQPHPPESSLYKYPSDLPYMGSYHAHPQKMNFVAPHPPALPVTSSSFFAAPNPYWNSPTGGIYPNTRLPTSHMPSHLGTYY
Briefly: ERG:peptide binding by biolayer interferometry (OctetRED).
Protocol: The interaction coefficients between ERG and synthetic peptides or peptidomimetics were determined by biolayer interferometry technology using the Octet Red system (ForteBio). Purified ERG and GUS proteins were biotinylated by EZLink NHS-PEG4 Biotinylation Kit (Thermo Scientific) following the manufacturer's protocol and any unincorporated biotin was removed from the reactions with Zeba 2 ml desalt columns (Thermo). Biotinylated proteins (500 μg/ml) were then incubated with super streptavidin biosensors in binding buffer (20 mM HEPES pH 7.4, 150 mM NaCl), blocked with 10 μg/ml biocytin and washed three times in binding buffer. Peptides were serially diluted in binding buffer, mixed with the protein-coupled biosensors and peptidomimetic:protein association/dissociation was monitored for 10 min at 25° C. Nonspecific binding from the signal obtained from peptidomimetic:GUS interactions was subtracted from that of peptidomimetic:ERG interactions and baseline signal drift was controlled by monitoring immobilized ERG without peptide. Octet Red analysis software was used to analyze the data.

Data set [2] has as its target T2, ERG.
Protocol: This technique was applied to evaluate the target binding specificity of RI-EIPs. […] All CETSAs were performed after 3 hours treatment with the peptidomimetics at the indicated doses and temperatures.
Data set [3] relates to VCaP (ERG fusion-positive) xenografts. The data set can be described thus: VCaP xenograft mouse model, tumor growth.
Protocol: (§1) Athymic Nude-Foxnlnu male mice were procured from Harlan Laboratories, Inc (Indianapolis, Ind.). All procedures involving mice were approved by the University Committee on Use and Care of Animals (UCUCA) at the University of Michigan and conformed to their relevant regulatory standards. […] Statistical significance for Kaplan-Meier analysis was determined by the log-rank (Mantel-Cox) test.
Athymic Nude-Foxnlnu male mice were procured from Harlan Laboratories, Inc. (Indianapolis, Ind.). VCaP (2×10^6 cells) or PC3 (5×10^5 cells) were resuspended in 100 μl of saline with 50% Matrigel (BD Biosciences, Becton Drive, NJ) and implanted subcutaneously into the flank regions on both sides of the mice. Mice were anesthetized using a cocktail of xylazine (80-120 mg/kg, IP) and ketamine (10 mg/kg, IP) for chemical restraint before tumor cells implantation. For short term assays, all tumors were staged for three weeks before starting peptidomimetic treatment. After week 3 (VCaP cells) or 12 days (PC3 cells), mice (10 per treatment group) were treated with peptidomimetics (25 mg/kg or 10 mg/kg as indicated, IP) daily five times a week.
Tumor growth was recorded every three days using digital calipers and tumor volumes were calculated using the formula (π/6) (L×W2), where L=length of tumor and W=width. Body weight was monitored weekly over the course of the study. At the end of the xenograft studies, mice were anaesthetized and blood was collected by cardiac puncture and tumors were preserved for further biochemical and immunofluorescence analysis. […] Survival analysis was carried out using the GraphPad Prism 4.0 software (GraphPad Software, San Diego, Calif.). Statistical significance for Kaplan-Meier analysis was determined by the log-rank (Mantel-Cox) test. All procedures involving mice were approved by the University Committee on Use and Care of Animals (UCUCA) at the University of Michigan and conform to their relevant regulatory standards.
Data set [4] relates to PC3 (ERG fusion-negative) xenografts. Briefly: PC3 xenograft mouse model, tumor growth. Conditions: 25 mg/kg, compared to mutant peptidomimetic.
Protocol: as §1
Athymic Nude-Foxnlnu male mice were procured from Harlan Laboratories, Inc. (Indianapolis, Ind.). VCaP (2×10^6 cells) or PC3 (5×10^5 cells) were resuspended in 100 μl of saline with 50% Matrigel (BD Biosciences, Becton Drive, NJ) and implanted subcutaneously into the flank regions on both sides of the mice. Mice were anesthetized using a cocktail of xylazine (80-120 mg/kg, IP) and ketamine (10 mg/kg, IP) for chemical restraint before tumor cells implantation. For short term assays, all tumors were staged for three weeks before starting peptidomimetic treatment. […]
Tumor growth was recorded every three days using digital calipers and tumor volumes were calculated using the formula (π/6) (L×W2), where L=length of tumor and W=width. Body weight was monitored weekly over the course of the study. […] Statistical significance for Kaplan-Meier analysis was determined by the log-rank (Mantel-Cox) test. […]
For a further data set, the system named is VCaP cells. More on the design: species or system chicken embryo. Conditions: in vivo, 25 mg/kg. Here is the method:
The CAM assays were performed as described previously (Brenner et al., 2011; supra). Briefly, fertilized eggs were incubated in a rotary humidified incubator at 38° C. for 10 days. First the CAM was released by applying mild pressure to the hole over the air sac and cutting a square 1 cm^2 window encompassing a second hole near the allantoic vein. Then cultured VCaP cells that stably express Cherry Red and pre-treated with peptidomimetics as indicated were detached by trypsinization and re-suspended in complete medium and 2×10^6 cells were implanted adjacent to the mesenchyme in each egg. The windows were subsequently sealed and the eggs were returned to a stationary incubator. For invasion and intravasation experiments, implanted eggs were treated with 25 mg/kg body weight of the peptidomimetics 6 hrs after inoculation and both the upper and lower CAM were isolated after 72 hr. Invasive cells were processed and stained for chicken collagen IV as previously described (Brenner et al., 2011; supra). […] The embryonic lungs were harvested and analyzed for the presence of tumor cells by quantitative human alu-specific PCR. […] Quantification of human cells in the extracted DNA was carried out as described (van der Horst et al., Biotechniques 37, 940-942, 944, 946 2004). Fluorogenic TaqMan qPCR probes were used as described above, and DNA copy numbers were quantified.

For another data set, the system named is CD31^+ vessels. More on the design: species or system mice. Conditions: mouse, in vivo. The text has this: (M) The quantitative data of IHC staining.
Data set [5] has as its system ERG targets such as TDRD1, ARHGDIB, NDRG1 and CACNA1D. Set-up: species or system mice. Conditions: mouse, in vivo. On the procedure: Total RNA was isolated from VCaP cells and tumors using Qiazol following the manufacturer's protocol (Qiagen). Quantitative PCR (QPCR) was performed using SYBR Green dye on an Applied Biosystems 7300 Real Time PCR system (Applied Biosystems) as described (Tomlins et al., 2005). Briefly, 2 μg of total RNA was reverse transcribed into cDNA using SuperScript III (Invitrogen) in the presence of random primers (Invitrogen). All reactions were performed in triplicate with SYBR Green Master Mix (Applied Biosystems) and 25 ng of forward and reverse primer according to the manufacturer's recommended thermocycling conditions, and then subjected to melt curve analysis. Threshold levels for each experiment were set during the exponential phase of the QPCR reaction using Sequence Detection Software version 1.2.2 (Applied Biosystems). The relative quantity of the target gene was calculated for each sample using the ΔΔCt method by the comparing mean Ct of the gene to the average Ct of the housekeeping gene, […] (Livak and Schmittgen, 2001). All oligonucleotide primers were synthesized by Integrated DNA Technologies (Coralville, Iowa). The primer sequences for the transcript analyzed were previously described (Brenner et al., 2011; supra).

Another data set has as its target ERG protein (Homo sapiens, UniProt P11308). Conditions: mouse, in vivo.

Protocol for ERG protein: VCaP cells were seeded in 6-well plates at 0.5×10^6 cells/ml and after allowing cells to attach, cells were harvested and homogenized in NP40 lysis buffer (Sigma) containing a complete protease inhibitor cocktail (Roche). Ten micrograms of each protein extract was boiled in SDS sample buffer, size fractionated by SDS-PAGE, and transferred onto a PVDF membrane (GE Healthcare). […] Following three washes in TBS-T, the blots were incubated with horseradish peroxidase conjugated secondary antibody and the signals visualized by enhanced chemiluminescence system according to manufacturer's instructions (GE Healthcare).
(§2) Cell pellets or tumors treated with or without the peptidomimetics were lysed in cell lysis buffer (20 mM MOPS, pH 7.0, 2 mM EGTA, 5 mM EDTA, 30 mM sodium fluoride, 60 mM β-glycerophosphate, 20 mM sodium pyrophosphate, 1 mM sodium orthovanadate, 1% Triton X-100, 1 mM DTT, protease inhibitor cocktail (Roche)). Cell lysates (0.5-1.0 mg) were pre-cleaned with protein A/G agarose beads (Santa Cruz) by incubation for 1 hour with shaking at 4° C. followed by centrifugation at 2000 rpm for 3 minute. Lysates were then incubated with 2 μg ERG antibody (Santa Cruz, C-17) at 4° C. for 4 hours with shaking prior to addition of 20 μl protein A/G agarose beads and incubated at 4° C. overnight. […] Samples were then analyzed by SDS-PAGE and Western blot analysis as described above.
Protocol for ERG:DNA-PKcs interaction: as §2
VCaP xenografted mice were injected with a single dose of 25 mg/kg biotinylated RI-EIP1 and serum and tumors were collected at varying time intervals as indicated.

One may read the Kd as the concentration at which binding is half-saturated. High values mean lower affinity, low ones higher affinity. On to `CC(C)C[C@@H](NC(=O)[C@H]1CCCN1C(=O)[C@H]1CCCN1C(=O)[C@@H](Cc1ccc(O)cc1)NC(=O)[C@@H](CC(C)C)NC(=O)[C@@H](Cc1ccccc1)NC(=O)[C@H](NC(=O)CNC(=O)CNC(=O)[C@@H](CCCNC(=N)N)NC(=O)[C@@H](CCCCN)NC(=O)[C@@H](CCCCN)NC(=O)[C@@H](CCCNC(=N)N)NC(=O)[C@@H](CCCNC(=N)N)NC(=O)[C@@H](CCC(N)=O)NC(=O)[C@@H](CCCNC(=N)N)NC(=O)[C@@H](CCCNC(=N)N)NC(=O)[C@@H](CCCNC(=N)N)NC(=O)CN)[C@H](C)O)C(=O)O` [RI-EIP1] (H-G[dR][dR][dR][dQ][dR][dR][dK][dK][dR]GG[dT][dF][dL][dY][dP][dP][dL]-OH), for which the “ERG:DNA-PKcs interaction in VCaP xenograft tumors” value on ERG:DNA-PKcs interaction is on record as “blocked”. Besides, binding on ERG [1] was put at a Kd of 0.94 µM. Further, the “soluble ERG protein in VCaP versus HUVEC cells (CETSA)” value at ERG [2] is listed as “clear difference”. Besides, in data set [3] (25 mg/kg group), the “recurrences after additional 30 days without therapy” value is recorded as “no recurrences were observed”. The “tumors completely regressed with no palpable tumor” value in data set [3] (25 mg/kg, day 18) was 10%. The “tumors with no signs of recurrence” value in data set [3] (25 mg/kg, extended treatment, day 30) amounted to 35%. The “tumor growth, additional VCaP xenograft studies” value in [3] (1, 5 and 25 mg/kg, effect at 25 mg/kg relative to control) was “significant suppression”. The VCaP tumor growth result in data set [3] (10 or 25 mg/kg per day, day 18, relative to mutant peptide, p<0.01) is recorded as “dose-dependent reduction”. For the same molecule, the “tumor size of PC3 xenografts” value in data set [4] is reported as “no difference in tumor size”. Moreover, the “ERG-mediated invasion and intravasation” value in the data set on VCaP cells was “dramatically blocked”. Further, the “angiogenesis by number of CD31^+ vessels in FFPE sections” value with CD31^+ vessels was “did not alter angiogenesis”. For the same molecule, the “gene expression of ERG targets in VCaP tumors” value in data set [5] is given as “inhibited”. Also, on ERG protein, the “ERG protein in VCaP xenograft tumors” value is given as “substantial degradation”.
